# Source: patent publication US20110217293A1, “Uses of morelloflavone” (priority 2008, published 2011)
# Entries after “also recorded” stand apart in the source; their conditions may differ.
# Legend:
# [1] = system: c-Src; experiment: Western blot, phosphorylation of c-Src; format: cell-based, mouse; settings: low concentrations (0.1 & 1 mM), 5 min
# Experimental: For the evaluation of phosphorylated FAK and c-Src, Western blot analyses were performed as described (15). Briefly, vascular smooth muscle cells were seeded on 10-cm dishes, treated with various concentrations of morelloflavone for 5 min, and harvested into RIPA buffer with protease inhibitor cocktails. Cleared cell lysates ([…] of protein) were incubated with anti-FAK or anti-c-Src antibodies at 4° C. for 1 hr in a final volume of 1 mL RIPA buffer, and incubated for another 1 hr with protein A/G agarose beads (Santa Cruz; SCBT sc-2003). Immunoprecipitated proteins were eluted into SDS-loading 7 buffer and subjected to 12% SDS-PAGE and immunoblotting using anti-FAK (Santa Cruz; A-17; sc-557) and anti-c-Src (Santa Cruz; SRC-2; sc-18) antibodies for total FAK and c-Src, respectively, and anti-phosphotyrosine antibody (Santa Cruz; PY-20; sc-508) for phosphorylated FAK and c-Src. Densitometric analyses were performed using Adobe Photoshop (Adobe Systems Incorporated, San Jose, Calif.).
# [2] = system: Ldlr−/−Apobec1−/− mice; experiment: Analysis of atherosclerotic lesions (en-face and cross-sectional); format: in vivo, mouse; settings: 8 months
# Experimental: As a model of in vivo athereosclerosis, mice that lack the low density lipoprotein (LDL) receptor and Apobec 1 genes (Ldlr^−/−Apobec1^−/−) were used. The Ldlr^−/−Apobec1^−/− mice were generated by crossbreeding Ldlr^−/− mice (Jackson Lab, Bar Harbor, Me.) and Apobec1^−/− mice (Dr. Lawrence Chan, Baylor College of Medicine). Genotyping was performed in standard PCR-based methods, using following primer sets: For Apobec1, 5′-TGAGTGAGTGGTGGTGGTAAAG-3′ (SEQ ID NO: 1) and 5′-CGAAATTCCTCCAGCAGTAAC-3′ (SEQ ID NO: 2) where […] and […] mice would have 475 by amplicon while Apobec1^−/− have none. For Ldlr, 5′-ACCCCAAGACGTGCTCCCAGGATGA-3′ (SEQ ID NO: 3), 5′-CGCAGTGCTCCTCATCTGACTTGT-3′ (SEQ ID NO: 4), 5′-AGGATCTCGTCGTGACCCATGGCGA-3′ (SEQ ID NO: 5), and 5′-GAGCGGCGATACCGTAAAGCACGAGG-3′ (SEQ ID NO: 6) where Ldlr^+/+ mice would yield 383 bp amplicon, while Ldlr^−/− 200 bp and […] amplicons, respectively.
# Twenty four (24) 8 week old Ldlr^−/−Apobec1^−/− mice were randomly assigned to either control group (normal rodent chow, Lab Diet, Richmond, Ind., N=12) or morelloflavone group (normal rodent chow supplemented with 0.003% (w/w) morelloflavone, N=12). The 0.003% (w/w) morelloflavone corresponds to approximately 4 mg/kg morelloflavone for 30 gram animals that consume 4 grams of chow. Animals were housed individually in an air-conditioned room with 12-h light/dark cycle with access to food and water. Body weight of these mice was monitored monthly. After 8 months, animals were sacrificed for analyses of atherosclerosis. Just prior to the sacrifice, blood was sampled from the heart and collected into micro-centrifuge tubes containing EDTA. The entire aortae were excised. All animal experimentation protocols were performed according to the protocol approved by the Institutional Animal Care and Use Committee (IACUC) of the University of Texas Health Science Center at Houston, in accordance with the National Institutes of Health guidelines.
# The aortae and hearts were excised en bloc. The extent and degree of atherosclerosis was quantified by both en-face analyses of atherosclerosis lesions and the intimal areas of the ascending aortae at the level of aortic valve leaflet. For en-face analysis of atherosclerotic areas, the distal portion of the ascending aortae, aortic arches, and descending aortae down to the liac bifurcations were pinned flat on a white wax surface, fixed with 10% (v/v) buffered formalin solution overnight, stained by freshly prepared and filtered Oil red O solution for 1 hr, rinsed twice with 78% methanol, mounted and dried on the glass slides, and scanned in the TIFF format using the ScanScope slide scanning system (Nikon, Melville, N.Y.). The planimetry of the entire surface areas and Oil red O-positive atherosclerotic lesion areas was performed on the scanned images using Sigma Scan Pro software (SPSS Science, Chicago, Ill.).
# For the cross sectional analyses of atherosclerosis, the roots of the ascending aortae were embedded in OCT compound (Tissue-Tek®, Sakura-Fineteck U.S.A., Torrance, Calif.). […] In both methods of atherosclerosis quantification, the images of aortae were digitally captured and stored in the TIFF format, using the ScanScope slide scanning system (Nikon, Melville, N.Y.). The quantification of the atherosclerotic area was performed by Image J software (NIH, Bethesda, Md.) and expressed at lesion areas (μm^2).
# [3] = biological target: sPLA2-IB (Homo sapiens, UniProt P04054); experiment: sPLA2 enzyme activity assay, Group IB; format: biochemical; settings: recombinant human sPLA2-IB, data not shown
# Sequence of sPLA2-IB (P04054 23-148): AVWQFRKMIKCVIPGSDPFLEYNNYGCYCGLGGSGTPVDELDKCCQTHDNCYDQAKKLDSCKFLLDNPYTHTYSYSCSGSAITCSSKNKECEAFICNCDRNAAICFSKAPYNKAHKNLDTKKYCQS
# Experimental: Recombinant human sPLA2 isoforms, Group IB, Group IIA, Group V, and Lp-PLA2 were obtained from R&D Systems and Cayman Chemical Co. sPLA2 enzyme activities in the presence of various concentrations of morelloflavone or other inhibitors were determined using a commercially available assay system according to the manufacturer's instructions (Cayman Chemical Co.). Thioetheramide-1-palmitylthio-2-palmitoylamido-1,2-dideoxy-sn-glycero-3-phosphorylcholine (T-PC) and methyl arachidonyl fluorophosphonate (MAFP) were used as inhibitors of sPLA2 (IB, IIA, and V) and Lp-PLA2, respectively, per manufacturers' instructions.
# [4] = system: Ldlr−/−Apobec1−/− mice; experiment: Immunohistochemical and TUNEL analysis of atherosclerotic lesions; format: in vivo, mouse; settings: aortic root, 8 months diet
# Text: For the cross sectional analyses of atherosclerosis, the roots of the ascending aortae were embedded in OCT compound (Tissue-Tek®, Sakura-Fineteck U.S.A., Torrance, Calif.). The 5-μm cryostat sections were obtained at the levels of aortic valve leaflets and subjected to hematoxylin and eosin (H&E), TUNEL, and other immunohistochemical staining as described below. In both methods of atherosclerosis quantification, the images of aortae were digitally captured and stored in the TIFF format, using the ScanScope slide scanning system (Nikon, Melville, N.Y.). The quantification of the atherosclerotic area was performed by Image J software (NIH, Bethesda, Md.) and expressed at lesion areas (μm^2).
# In order to identify within the intima vascular smooth muscle cells, macrophages, and proliferating cells, the tissue was stained using anti-smooth muscle cell alpha-actin (SMA) (catalog no. ab5694, Abcam, Cambridge, Mass.), anti-macrophage surface glycoproteins (F4/80, catalog no. ab6640, Abcam), and anti-Ki67 (Clone TEC-3, DAKO, Carpinteria, Calif.) antibodies, respectively, as described previously. Values are expressed as means±SD. Comparisons of parameters between two groups were made with the two-tailed Student's t test. When appropriate, ANOVA was performed to compare multiple groups. A value of P<0.05 was considered statistically significant.
structure (smiles),measurement,setting,value
"O=C1c2c(O)cc(O)cc2O[C@H](c2ccc(O)cc2)[C@H]1c1c(O)cc(O)c2c(=O)cc(-c3ccc(O)c(O)c3)oc12 [morelloflavone, 5,7, 4′, 5″, 7″, 3″, 4″-heptahydroxy-[3,8″]-flavonylflavanone]",phosphorylation of c-Src,[1],inhibited; also recorded: robustly decreased phosphorylation; also recorded: blocks
same,"atherosclerotic surface area, en-face analysis","[2]; 0.003% (w/w) diet (0.03%), male Ldlr−/−Apobec1−/− mice",24.9±6.9 % of the total aortic surface area
same,"atherosclerotic lesion area, cross-sectional analysis at aortic valve",[2]; 0.003% diet,5.65±1.05 ×10^3 μm^2
same,reduction of cross-sectional lesion area vs control,[2]; 0.003% diet,26%
same,reduction of en-face atherosclerotic area vs control,[2]; 0.003% diet,26%
same,total area affected by atherosclerosis compared with control mice (en face),[2]; 0.003% morelloflavone-containing diet,substantially lower
same,IC50,[3],> 10 µM
same,Ki-67-positive cells in atherosclerotic lesions,[4],0.0011±0.0003 cells/μm^2
same,Ki-67 index in atherosclerotic lesions,[4],1.6±0.5%
same,SMA-positive cells (SMA index) in atherosclerotic lesions,[4],0.0026±0.0007 cells/μm^2
same,SMA-positive cells (VSMCs) in atherosclerotic lesions,[4],15.4±3.5 cells/section
same,TUNEL index in atherosclerotic lesions,[4],0.4±0.2%
same,TUNEL-positive cells in atherosclerotic lesions,[4],0.00025±0.00008 cells/μm^2
same,macrophages (F4/80-positive cells) in the lesions,[4],32.3±8.0 cells/section
same,macrophages (F4/80 index) in the lesions,[4],0.0042±0.0018 cells/μm^2
same,reduction of SMA-positive cells per section vs control,[4],43%
same,reduction of SMA-positive cells per μm^2 vs control,[4],32%
